Our source for the melting point and IC50 values is patent US20200069648A1, “HALOALLYLAMINE PYRAZOLE DERIVATIVE INHIBITORS OF LYSYL OXIDASES AND USES THEREOF” (Pharmaxis Ltd., priority 2017, published 2020).

Series [1] addresses T1, Bovine LOX (Bos taurus, UniProt P33072).
T1 sequence (P33072 170-418): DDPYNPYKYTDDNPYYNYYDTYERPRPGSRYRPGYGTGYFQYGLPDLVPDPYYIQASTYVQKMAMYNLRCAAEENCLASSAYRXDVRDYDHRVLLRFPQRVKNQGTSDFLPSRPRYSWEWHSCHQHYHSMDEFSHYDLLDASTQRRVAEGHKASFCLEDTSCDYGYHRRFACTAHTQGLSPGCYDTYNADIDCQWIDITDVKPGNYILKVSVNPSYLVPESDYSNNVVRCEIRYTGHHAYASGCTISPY
The series can be described thus: LOX amine oxidase inhibition, peroxidase-coupled Amplex Red assay. In kind it is biochemical. Conditions: 30 min preincubation at 37° C., putrescine substrate. From the text:
(§1) Method to Determine the Ability of Compounds of the Invention to Inhibit LOX and LOXL1-4 from Different Sources
Lysyl oxidase (LOX) is an extracellular copper dependent enzyme which oxidizes peptidyl lysine and hydroxylysine residues in collagen and lysine residues in elastin to produce peptidyl alpha-aminoadipic-delta-semialdehydes. […] There are five LOX family members; these are LOX, LOXL1, LOXL2, LOXL3 and LOXL4. LOX and LOXL family members can be acquired as recombinant active proteins from commercial sources, or extracted from animal tissues like bovine aorta, tendons, pig skin; or prepared from cell cultures. The inhibitory effects of the compounds of the present invention were tested against the given LOX-LOXL preparation using a high-throughput coupled colorimetric method (Holt A. and Palcic M., A peroxidase-coupled continuous absorbance plate-reader assay for flavin monoamine oxidases, copper-containing amine oxidases and related enzymes. Nat. Protoc. 2006; 1: 2498-2505). The assay was developed using either 384 or 96 well format. Briefly, in a standard 384 well plate assay 25 μL of a dilution of any of the isoenzymes and orthologues in 1.2 M urea, 50 mM sodium borate buffer (pH 8.2) were added into each well in the presence of 1 μM mofegiline and 0.5 mM pargyline (to inhibit SSAO and MAO-B and MAO-A, respectively). […] Twenty five μL of a reaction mixture containing twice the KM concentration of putrescine (Sigma Aldrich, e.g. 20 mM for LOX, or 10 mM for LOXL2 and LOXL3), 120 μM Amplex Red (Sigma Aldrich) and 1.5 U/mL horseradish peroxidase (Sigma Aldrich) prepared in 1.2 M urea, 50 mM sodium borate buffer (pH 8.2) were then added to the corresponding wells. The above volumes were doubled in the case of 96 wells plate. The fluorescence (RFU) was read every 2.5 min for 30 min at a range of temperatures from 37° to 45° C., excitation 565 nm and emission 590 (Optima; BMG labtech). The slope of the kinetics for each well was calculated using MARS data analysis software (BMG labtech) and this value was used to deduce the IC50 value (Dotmatics).

Series [2] addresses T2, Human LOXL2 (Homo sapiens, UniProt Q9Y4K0).
T2 sequence (Q9Y4K0 26-774): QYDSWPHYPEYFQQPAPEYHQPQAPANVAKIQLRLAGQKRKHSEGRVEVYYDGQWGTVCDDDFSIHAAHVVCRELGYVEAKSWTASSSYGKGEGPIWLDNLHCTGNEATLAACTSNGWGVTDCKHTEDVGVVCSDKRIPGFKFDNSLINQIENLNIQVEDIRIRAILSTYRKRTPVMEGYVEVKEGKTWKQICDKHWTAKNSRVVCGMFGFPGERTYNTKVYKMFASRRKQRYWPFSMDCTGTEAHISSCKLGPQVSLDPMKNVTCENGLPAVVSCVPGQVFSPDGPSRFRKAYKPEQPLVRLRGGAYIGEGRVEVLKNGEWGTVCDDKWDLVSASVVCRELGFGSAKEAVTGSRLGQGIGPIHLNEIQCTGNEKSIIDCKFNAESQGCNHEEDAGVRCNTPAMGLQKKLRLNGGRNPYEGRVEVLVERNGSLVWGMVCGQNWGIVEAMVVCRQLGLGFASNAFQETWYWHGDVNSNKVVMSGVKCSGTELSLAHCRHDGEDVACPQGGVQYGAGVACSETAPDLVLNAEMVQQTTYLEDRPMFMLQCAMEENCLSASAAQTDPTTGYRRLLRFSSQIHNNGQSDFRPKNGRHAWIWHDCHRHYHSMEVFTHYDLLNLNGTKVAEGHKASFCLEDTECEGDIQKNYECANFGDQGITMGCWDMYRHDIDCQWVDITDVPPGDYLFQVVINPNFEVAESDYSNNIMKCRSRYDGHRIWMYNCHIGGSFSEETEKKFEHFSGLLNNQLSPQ
Kind of series: LOXL2 amine oxidase inhibition, peroxidase-coupled Amplex Red assay. It counts as biochemical. To be noted: 30 min preincubation at 37° C., putrescine substrate.
Source text: as §1
Lysyl oxidase (LOX) is an extracellular copper dependent enzyme which oxidizes peptidyl lysine and hydroxylysine residues in collagen and lysine residues in elastin to produce peptidyl alpha-aminoadipic-delta-semialdehydes. […] There are five LOX family members; these are LOX, LOXL1, LOXL2, LOXL3 and LOXL4. LOX and LOXL family members can be acquired as recombinant active proteins from commercial sources, or extracted from animal tissues like bovine aorta, tendons, pig skin; or prepared from cell cultures. The inhibitory effects of the compounds of the present invention were tested against the given LOX-LOXL preparation using a high-throughput coupled colorimetric method (Holt A. and Palcic M., A peroxidase-coupled continuous absorbance plate-reader assay for flavin monoamine oxidases, copper-containing amine oxidases and related enzymes. Nat. Protoc. 2006; 1: 2498-2505). The assay was developed using either 384 or 96 well format. Briefly, in a standard 384 well plate assay 25 μL of a dilution of any of the isoenzymes and orthologues in 1.2 M urea, 50 mM sodium borate buffer (pH 8.2) were added into each well in the presence of 1 μM mofegiline and 0.5 mM pargyline (to inhibit SSAO and MAO-B and MAO-A, respectively). Test compounds were dissolved in DMSO and tested in a Concentration Response Curve (CRC) with 11 data points, typically in the micromolar or nanomolar range after incubation with the enzyme for 30 min at 37° C. Twenty five μL of a reaction mixture containing twice the KM concentration of putrescine (Sigma Aldrich, e.g. 20 mM for LOX, or 10 mM for LOXL2 and LOXL3), 120 μM Amplex Red (Sigma Aldrich) and 1.5 U/mL horseradish peroxidase (Sigma Aldrich) prepared in 1.2 M urea, 50 mM sodium borate buffer (pH 8.2) were then added to the corresponding wells. The above volumes were doubled in the case of 96 wells plate. The fluorescence (RFU) was read every 2.5 min for 30 min at a range of temperatures from 37° to 45° C., excitation 565 nm and emission 590 (Optima; BMG labtech). The slope of the kinetics for each well was calculated using MARS data analysis software (BMG labtech) and this value was used to deduce the IC50 value (Dotmatics).

Series [3] has as its target T3, Recombinant human MAO-B (Homo sapiens, UniProt P27338).
T3 construct: purchased Sigma Aldrich
T3 sequence (P27338 1-520): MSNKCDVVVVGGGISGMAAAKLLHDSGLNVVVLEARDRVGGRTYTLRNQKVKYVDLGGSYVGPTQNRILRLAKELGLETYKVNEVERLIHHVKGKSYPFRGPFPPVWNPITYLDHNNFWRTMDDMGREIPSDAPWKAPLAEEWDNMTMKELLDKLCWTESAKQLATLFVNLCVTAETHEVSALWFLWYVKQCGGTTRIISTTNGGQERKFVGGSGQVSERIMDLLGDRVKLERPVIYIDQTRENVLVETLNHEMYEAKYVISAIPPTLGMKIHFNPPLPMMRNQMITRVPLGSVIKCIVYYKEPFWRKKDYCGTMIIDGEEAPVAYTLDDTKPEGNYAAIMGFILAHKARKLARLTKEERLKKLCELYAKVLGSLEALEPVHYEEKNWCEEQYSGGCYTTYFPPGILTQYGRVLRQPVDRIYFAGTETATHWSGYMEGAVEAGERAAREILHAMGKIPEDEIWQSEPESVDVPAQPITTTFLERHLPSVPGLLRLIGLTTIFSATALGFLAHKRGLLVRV
The series can be described thus: Human recombinant MAO-B inhibition. It counts as biochemical. Conditions: benzylamine 100 μM. How it is done: Method to Determine the Ability of Compounds of Formula I to Inhibit Human Recombinant MAO-B
The specificity of the compounds of this invention was tested by determining their ability to inhibit MAO-B activities in vitro. Recombinant human MAO-B (0.06 mg/mL; Sigma Aldrich) was used as source of MAO-B enzyme activities. The assay was performed in a similar way as for human SSAO/VAP-1 (Example 46) except, the substrate benzylamine was used at 100 μM.

The structures appear in SMILES notation. Where a name gives a salt, the structure may show the parent alone.

For the compound `Cc1nn(C/C(F)=C/CN)c(C)c1Cc1ccc(S(=O)(=O)N(C)C)cc1` (as salt: hydrochloride) [Compound 2, (Z)-4-((1-(4-amino-2-fluorobut-2-en-1-yl)-3,5-dimethyl-1H-pyrazol-4-yl)methyl)-N,N-dimethylbenzenesulfonamide hydrochloride], the melting point is 209 to 211 °C.
`Cc1nn(C/C(F)=C/CN)c(C)c1Cc1ccc(S(=O)(=O)N(C)C)cc1Cl` (as salt: hydrochloride) [Compound 3, (Z)-4-((1-(4-amino-2-fluorobut-2-en-1-yl)-3,5-dimethyl-1H-pyrazol-4-yl)methyl)-3-chloro-N,N-dimethylbenzenesulfonamide hydrochloride] showed a melting point of 185 to 187 °C.
On the same count and under the same terms, under `Cc1nn(C/C(F)=C/CN)c(C)c1Cc1ccc(S(C)(=O)=O)cc1` (as salt: hydrochloride) [Compound 4, (Z)-4-(3,5-dimethyl-4-(4-(methylsulfonyl)benzyl)-1H-pyrazol-1-yl)-3-fluorobut-2-en-1-amine hydrochloride] stands 127 to 137 °C; under `Cc1nn(C/C(F)=C/CN)c(C)c1Cc1ccc(S(=O)(=O)N2CCOCC2)cc1` (as salt: hydrochloride) [Compound 6, (Z)-4-(3,5-dimethyl-4-(4-(morpholinosulfonyl)benzyl)-1H-pyrazol-1-yl)-3-fluorobut-2-en-1-amine hydrochloride], 190 to 197 °C.
Still for that read-out and setting: under `Cc1nn(C/C(F)=C/CN)c(C)c1Cc1ccc(S(=O)(=O)N2CCCC2)cc1` (as salt: hydrochloride) [Compound 7, (Z)-4-(3,5-dimethyl-4-(4-(pyrrolidin-1-ylsulfonyl)benzyl)-1H-pyrazol-1-yl)-3-fluorobut-2-en-1-amine hydrochloride] stands 181 to 184 °C.
Same read-out and setting: under `Cc1nn(C/C(F)=C/CN)c(C)c1Cc1ccc(S(=O)(=O)N(C)C)c2ccccc12` (as salt: hydrochloride) [Compound 9, (Z)-4-((1-(4-amino-2-fluorobut-2-en-1-yl)-3,5-dimethyl-1H-pyrazol-4-yl)methyl)-N,N-dimethyl naphthalene-1-sulfonamide hydrochloride] stands 70 to 80 °C; under `Cc1nn(Cc2ccc(S(=O)(=O)N(C)C)cc2)c(C)c1C/C(F)=C/CN` (as salt: hydrochloride) [Compound 10, (Z)-4-((4-(4-amino-2-fluorobut-2-en-1-yl)-3,5-dimethyl-1H-pyrazol-1-yl)methyl)-N,N-dimethylbenzenesulfonamide hydrochloride], 180 to 185 °C.
`Cc1nn(C/C(F)=C/CN)c(C)c1Cc1ccc(C(=O)N(C)C)cc1` (as salt: hydrochloride) [Compound 14, (Z)-4-((1-(4-amino-2-fluorobut-2-en-1-yl)-3,5-dimethyl-1H-pyrazol-4-yl)methyl)-N,N-dimethylbenzamide hydrochloride] returned a melting point of 75 to 82 °C.
In turn, `Cc1nn(C/C(F)=C/CN)c(C)c1Cc1ccc(S(C)(=O)=O)c(Cl)c1` (as salt: hydrochloride) [Compound 16, (Z)-4-(4-(3-chloro-4-(methylsulfonyl)benzyl)-3,5-dimethyl-1H-pyrazol-1-yl)-3-fluorobut-2-en-1-amine hydrochloride] registered a melting point of 105 to 115 °C.
Take `CNS(=O)(=O)c1ccc(Cn2nc(C)c(C/C(F)=C/CN)c2C)c(Cl)c1` (as salt: hydrochloride) [Compound 20, (Z)-4-((4-(4-amino-2-fluorobut-2-en-1-yl)-3,5-dimethyl-1H-pyrazol-1-yl)methyl)-3-chloro-N-methylbenzenesulfonamide hydrochloride]: the melting point is 80 to 86 °C.
On to `CNS(=O)(=O)c1ccc(Cn2nc(C)c(C/C(F)=C/CN)c2C)c(C(F)(F)F)c1` (as salt: hydrochloride) [Compound 23, (Z)-4-((4-(4-amino-2-fluorobut-2-en-1-yl)-3,5-dimethyl-1H-pyrazol-1-yl)methyl)-N-methyl-3-(trifluoromethyl)benzenesulfonamide hydrochloride], for which the melting point was 171 to 172 °C.
For `Cc1nn(C/C(F)=C/CN)c(C(C)O)c1Cc1ccc(S(=O)(=O)N(C)C)c(Cl)c1` (centres unmarked) [Compound 36, (Z)-4-((1-(4-amino-2-fluorobut-2-en-1-yl)-5-(1-hydroxyethyl)-3-methyl-1H-pyrazol-4-yl)methyl)-2-chloro-N,N-dimethylbenzenesulfonamide], the IC50 in series [1] was above 10 µM; in series [2], below 1 µM; in series [3], above 30 µM.
